# Measured values taken from publication PMC12136037, “Type II kinase inhibitors that target Parkinson’s disease–associated LRRK2” (Science Advances, 2025).
# “And” between values parts separate entries of the source, which are not always exact repeats. Equal entries are not always repeated.
# Target: T1, LRRK2^RCKW (Homo sapiens, UniProt Q5S007)
# T1 construct: LRRK2 R1327 to E2527; His6-Z-tag (TEV cleavable) (N, cleaved yes); host or cells: Sf9 insect cells (baculovirus)
# T1 sequence (Q5S007 1327-2527): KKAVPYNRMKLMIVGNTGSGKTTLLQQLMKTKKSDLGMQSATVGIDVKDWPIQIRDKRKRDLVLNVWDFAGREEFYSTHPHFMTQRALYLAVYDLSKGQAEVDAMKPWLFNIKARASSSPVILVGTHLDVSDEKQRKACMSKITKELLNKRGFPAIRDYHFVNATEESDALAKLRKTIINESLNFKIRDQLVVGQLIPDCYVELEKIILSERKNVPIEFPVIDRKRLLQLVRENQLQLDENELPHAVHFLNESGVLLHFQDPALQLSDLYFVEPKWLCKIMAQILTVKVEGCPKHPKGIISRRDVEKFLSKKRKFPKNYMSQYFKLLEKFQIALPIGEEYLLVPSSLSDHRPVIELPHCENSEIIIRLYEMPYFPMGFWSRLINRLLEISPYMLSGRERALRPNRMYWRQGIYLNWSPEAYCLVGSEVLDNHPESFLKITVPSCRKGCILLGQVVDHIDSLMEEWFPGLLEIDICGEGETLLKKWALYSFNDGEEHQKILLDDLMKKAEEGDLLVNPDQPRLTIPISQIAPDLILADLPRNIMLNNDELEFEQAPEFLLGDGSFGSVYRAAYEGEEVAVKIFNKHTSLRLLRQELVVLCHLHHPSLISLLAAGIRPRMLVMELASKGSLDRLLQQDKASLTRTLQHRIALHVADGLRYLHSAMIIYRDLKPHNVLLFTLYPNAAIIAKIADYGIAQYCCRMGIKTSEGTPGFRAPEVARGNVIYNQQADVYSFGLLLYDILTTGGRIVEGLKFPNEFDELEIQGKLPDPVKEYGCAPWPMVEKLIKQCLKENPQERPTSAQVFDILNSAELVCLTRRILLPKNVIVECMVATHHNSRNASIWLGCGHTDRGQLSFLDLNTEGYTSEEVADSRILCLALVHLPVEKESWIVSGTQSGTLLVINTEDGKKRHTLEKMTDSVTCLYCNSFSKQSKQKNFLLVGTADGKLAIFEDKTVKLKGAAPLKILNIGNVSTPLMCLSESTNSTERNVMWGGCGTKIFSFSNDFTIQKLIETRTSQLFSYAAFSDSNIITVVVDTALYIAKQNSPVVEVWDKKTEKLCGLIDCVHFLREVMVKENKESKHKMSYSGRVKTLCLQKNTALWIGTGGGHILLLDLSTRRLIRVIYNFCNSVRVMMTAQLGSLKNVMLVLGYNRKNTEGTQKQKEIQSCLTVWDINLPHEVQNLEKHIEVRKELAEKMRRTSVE
# Test: MS-based activity assay, Rab8a phosphorylation (pT72)
# Format: biochemical
# Conditions: for % phosphorylation: Rab8a; for % phosphorylation / Normalized: single runs; for LRRK2RCKW activity (% control): mean of n=3; for IC50: mass spectrometry, 1 mM ATP, 4 h, read-out: IC50, LRRK2^RCKW-mediated phosphorylation of Rab8a; for Normalized: normalized % phosphorylation of Rab8a
# Procedure: To determine IC50 values for selected inhibitors, activity assay was performed using LRRK2^RCKW and Rab8A substrate (table S4). LRRK2^RCKW (20 nM) was incubated with 5 μM substrate and a concentration series of the respective inhibitor in 20 mM Hepes (pH 7.4), 100 mM NaCl, 0.5 mM TCEP, 0.5% glycerol, 20 μM GDP, and 2.5 mM MgCl2. The reaction was started by adding 1 mM ATP and incubated at room temperature for 4 hours. The phosphorylation reaction was stopped by addition of MS buffer (0.1% formic acid in water). Reaction mix (5 μl) was injected into an Agilent 6230 electrospray ionization time-of-flight mass spectrometer coupled to a 1260 Infinity liquid chromatography unit (flow rate at 0.4 ml/min using a solvent gradient of water to acetonitrile with 0.1% formic acid). Data were acquired using the MassHunter LC/MS Data Acquisition software and analyzed using the BioConfirm vB.08.00 tool (both Agilent Technology, www.agilent.com/en/product/software-informatics/mass-spectrometry-software, RRID: SCR_016657).
# Peak intensities of unphosphorylated and phosphorylated Rab8A were quantified, and the relative kinase activity was calculated as a ratio. To determine the IC50, a nonlinear regression with variable slope was fitted to the datapoints with GraphPad Prism (www.graphpad.com/, RRID:SCR_002798). (For step-by-step protocol, see dx.doi.org/10.17504/protocols.io.6qpvr385ovmk/v2.)
# [1] = inhibitor 0.21 (0.212), listed as RN277
# [2] = inhibitor 0.64 (0.635), listed as RN277
# [3] = inhibitor 1.91 (2), listed as RN277
# [4] = inhibitor 5.72 (6), listed as RN277
# [5] = inhibitor 17.15 (17), listed as RN277
# [6] = inhibitor 51.44 (51), listed as RN277
# [7] = inhibitor 154.32 (154), listed as RN277
# [8] = inhibitor 462.96 (463), listed as RN277
# [9] = inhibitor 1388.89 (1389), listed as RN277
# [10] = inhibitor 4166.67 (4167), listed as RN277
# [11] = inhibitor 12500, listed as RN277
# [12] = inhibitor 0.21 (0.212), listed as RN341
# [13] = inhibitor 0.64 (0.635), listed as RN341
# [14] = inhibitor 1.91 (2), listed as RN341
# [15] = inhibitor 5.72 (6), listed as RN341
# [16] = inhibitor 17.15 (17), listed as RN341
# [17] = inhibitor 51.44 (51), listed as RN341
# [18] = inhibitor 154.32 (154), listed as RN341
# [19] = inhibitor 462.96 (463), listed as RN341
# [20] = inhibitor 1388.89 (1389), listed as RN341
# [21] = inhibitor 4166.67 (4167), listed as RN341
# [22] = inhibitor 12500, listed as RN341
smiles,measurement,setting,value
Cc1ccc(-n2nc(C(C)(C)C)cc2NC(=O)Nc2cccc(-c3c[nH]c4nc(Cl)nc(N5CCOCC5)c34)c2)cc1 [Compound 30],% phosphorylation,[1],60.4% and 59.2% and 60.0%
same,% phosphorylation,[2],61.6% and 60.3% and 62.2%
same,% phosphorylation,[3],60.4% and 59.2%
same,% phosphorylation,[4],61.0% and 59.5% and 59.1%
same,% phosphorylation,[5],52.8% and 50.7% and 48.4%
same,% phosphorylation,[6],34.0% and 33.1% and 33.2%
same,% phosphorylation,[7],18.1% and 19.7% and 20.2%
same,% phosphorylation,[8],8.2% and 8.7% and 10.4%
same,% phosphorylation,[9],5.3% and 5.2% and 5.4%
same,% phosphorylation,[10],4.0% and 5.6%
same,% phosphorylation,[11],4.6% and 3.7% and 4.4%
same,LRRK2RCKW activity (% control),inhibitor 0.64 nM,102.03 % control
same,LRRK2RCKW activity (% control),inhibitor 5.72 nM,99.57 % control
same,LRRK2RCKW activity (% control),inhibitor 17.15 nM,84.23 % control
same,LRRK2RCKW activity (% control),inhibitor 51.44 nM,55.63 % control
same,LRRK2RCKW activity (% control),inhibitor 154.32 nM,32.20 % control
same,LRRK2RCKW activity (% control),inhibitor 462.96 nM,15.20 % control
same,LRRK2RCKW activity (% control),inhibitor 1388.89 nM,8.77 % control
same,IC50,,70 nM
same,Normalized,[1],100.1 and 100.0 and 98.5
same,Normalized,[2],102.0 and 101.9 and 102.2
same,Normalized,[3],99.9 and 100.1 and 99.3
same,Normalized,[4],100.9 and 100.6 and 97.0
same,Normalized,[5],87.4 and 85.7 and 79.5
same,Normalized,[6],56.4 and 55.8 and 54.6
same,Normalized,[7],29.8 and 32.7 and 34.1
same,Normalized,[8],13.5 and 14.4 and 17.6
same,Normalized,[9],8.6 and 9.0
same,Normalized,[10],6.6 and 9.5
same,Normalized,[11],7.5 and 6.1
CCSc1nc(NC)c2c(-c3cccc(NC(=O)Nc4cc(C(C)(C)C)nn4-c4ccc(C)cc4)c3)c[nH]c2n1 [Compound 32],% phosphorylation,[12],66.5% and 61.3% and 65.1%
same,% phosphorylation,[13],67.4% and 62.2% and 63.1%
same,% phosphorylation,[14],64.1% and 60.1% and 61.1%
same,% phosphorylation,[15],63.8% and 59.4% and 61.3%
same,% phosphorylation,[16],55.5% and 52.5% and 53.7%
same,% phosphorylation,[17],47.7% and 41.6% and 46.5%
same,% phosphorylation,[18],25.7% and 23.0% and 24.6%
same,% phosphorylation,[19],11.0% and 11.8% and 10.3%
same,% phosphorylation,[20],8.0% and 8.8% and 7.9%
same,% phosphorylation,[21],5.7% and 6.7% and 6.1%
same,% phosphorylation,[22],5.9% and 7.2% and 6.3%
same,LRRK2RCKW activity (% control),inhibitor 0.64 nM,100.63 % control
same,LRRK2RCKW activity (% control),inhibitor 5.72 nM,96.37 % control
same,LRRK2RCKW activity (% control),inhibitor 17.15 nM,84.53 % control
same,LRRK2RCKW activity (% control),inhibitor 51.44 nM,70.93 % control
same,LRRK2RCKW activity (% control),inhibitor 154.32 nM,38.27 % control
same,LRRK2RCKW activity (% control),inhibitor 462.96 nM,17.40 % control
same,LRRK2RCKW activity (% control),inhibitor 1388.89 nM,12.93 % control
same,IC50,,110 nM
same,Normalized,[12],99.7 and 99.1 and 103.7
same,Normalized,[13],101.0 and 100.4 and 100.5
same,Normalized,[14],96.1 and 97.0 and 97.3
same,Normalized,[15],95.6 and 96.0 and 97.5
same,Normalized,[16],83.2 and 84.9 and 85.6
same,Normalized,[17],71.6 and 67.2 and 74.0
same,Normalized,[18],38.5 and 37.1 and 39.2
same,Normalized,[19],16.6 and 19.1 and 16.5
same,Normalized,[20],12.0 and 14.2 and 12.6
same,Normalized,[21],8.5 and 10.8 and 9.6
same,Normalized,[22],8.9 and 11.6 and 10.1
